Test results published in ChEMBL document CHEMBL1156950, “Synthesis and biological evaluation of 4-anilinoquinolines as potent inhibitors of epidermal growth factor receptor” (J Med Chem, 2010).

Experiments:
[1] = target: Inhibitor of nuclear factor kappa-B kinase subunit beta (Homo sapiens) (UniProt O14920); assay: Inhibition of IKK-beta at 10 uM assessed as residual activity by [33P]ATP radioactive filter binding assay relative to control
[2] = target: Serine/threonine-protein kinase PAK 5 (Homo sapiens) (UniProt Q9P286); assay: Inhibition of PAK5 at 10 uM assessed as residual activity by [33P]ATP radioactive filter binding assay relative to control
Sequence of Serine/threonine-protein kinase PAK 5 (Homo sapiens) (Q9P286 whole entry, looked up): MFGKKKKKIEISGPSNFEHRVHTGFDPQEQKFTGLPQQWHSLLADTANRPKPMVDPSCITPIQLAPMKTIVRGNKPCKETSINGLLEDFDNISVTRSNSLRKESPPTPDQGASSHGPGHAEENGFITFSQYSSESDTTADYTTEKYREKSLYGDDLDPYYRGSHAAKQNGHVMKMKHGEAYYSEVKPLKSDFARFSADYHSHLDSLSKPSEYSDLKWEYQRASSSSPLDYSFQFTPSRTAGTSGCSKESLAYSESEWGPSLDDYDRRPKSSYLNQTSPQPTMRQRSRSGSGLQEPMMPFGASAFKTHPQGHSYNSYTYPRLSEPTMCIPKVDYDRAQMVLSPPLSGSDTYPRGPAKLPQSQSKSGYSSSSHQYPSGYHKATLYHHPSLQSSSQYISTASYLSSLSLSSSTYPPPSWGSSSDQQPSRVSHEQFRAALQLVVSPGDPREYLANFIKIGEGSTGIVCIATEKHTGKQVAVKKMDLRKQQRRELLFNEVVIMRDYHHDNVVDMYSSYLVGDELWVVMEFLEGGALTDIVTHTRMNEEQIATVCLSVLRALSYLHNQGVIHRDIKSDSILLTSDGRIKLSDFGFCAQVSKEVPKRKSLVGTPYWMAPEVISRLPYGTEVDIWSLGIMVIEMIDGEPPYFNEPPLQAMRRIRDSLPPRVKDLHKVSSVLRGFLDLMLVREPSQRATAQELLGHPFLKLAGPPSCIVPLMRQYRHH

[3] = target: MAP/microtubule affinity-regulating kinase 4 (Homo sapiens) (UniProt Q96L34); assay: Inhibition of MARK4 at 10 uM assessed as residual activity by [33P]ATP radioactive filter binding assay relative to control
[4] = target: Serine/threonine-protein kinase MARK2 (Homo sapiens) (UniProt Q7KZI7); assay: Inhibition of MARK2 at 10 uM assessed as residual activity by [33P]ATP radioactive filter binding assay relative to control
[5] = target: Insulin receptor-related protein (Homo sapiens) (UniProt P14616); assay: Inhibition of IRR at 10 uM assessed as residual activity by [33P]ATP radioactive filter binding assay relative to control
[6] = target: Serine/threonine-protein kinase 26 (Homo sapiens) (UniProt Q9P289); assay: Inhibition of MST4 at 10 uM assessed as residual activity by [33P]ATP radioactive filter binding assay relative to control
[7] = target: Serine/threonine-protein kinase 3 (Homo sapiens) (UniProt Q13188); assay: Inhibition of MST2 at 10 uM assessed as residual activity by [33P]ATP radioactive filter binding assay relative to control
[8] = Inhibition of AMPK at 10 uM assessed as residual activity by [33P]ATP radioactive filter binding assay relative to control
[9] = target: Mitogen-activated protein kinase kinase kinase 11 (Homo sapiens) (UniProt Q16584); assay: Inhibition of MLK3 at 10 uM assessed as residual activity by [33P]ATP radioactive filter binding assay relative to control
[10] = target: Serine/threonine-protein kinase Nek6 (Homo sapiens) (UniProt Q9HC98); assay: Inhibition of NEK6 at 10 uM assessed as residual activity by [33P]ATP radioactive filter binding assay relative to control
Sequence of Serine/threonine-protein kinase Nek6 (Homo sapiens) (Q9HC98 whole entry): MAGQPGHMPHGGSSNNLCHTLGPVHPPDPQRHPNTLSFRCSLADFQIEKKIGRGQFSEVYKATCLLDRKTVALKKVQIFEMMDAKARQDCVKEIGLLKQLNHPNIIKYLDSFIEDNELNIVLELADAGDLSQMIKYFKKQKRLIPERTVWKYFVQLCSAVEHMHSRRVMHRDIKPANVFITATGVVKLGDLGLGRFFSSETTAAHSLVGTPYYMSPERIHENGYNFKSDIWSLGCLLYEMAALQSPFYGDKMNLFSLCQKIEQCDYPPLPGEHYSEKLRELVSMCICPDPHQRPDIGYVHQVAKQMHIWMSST

[11] = target: Mitogen-activated protein kinase 15 (Homo sapiens) (UniProt Q8TD08); assay: Inhibition of ERK8 at 10 uM assessed as residual activity by [33P]ATP radioactive filter binding assay relative to control
Sequence of Mitogen-activated protein kinase 15 (Homo sapiens) (Q8TD08 whole entry): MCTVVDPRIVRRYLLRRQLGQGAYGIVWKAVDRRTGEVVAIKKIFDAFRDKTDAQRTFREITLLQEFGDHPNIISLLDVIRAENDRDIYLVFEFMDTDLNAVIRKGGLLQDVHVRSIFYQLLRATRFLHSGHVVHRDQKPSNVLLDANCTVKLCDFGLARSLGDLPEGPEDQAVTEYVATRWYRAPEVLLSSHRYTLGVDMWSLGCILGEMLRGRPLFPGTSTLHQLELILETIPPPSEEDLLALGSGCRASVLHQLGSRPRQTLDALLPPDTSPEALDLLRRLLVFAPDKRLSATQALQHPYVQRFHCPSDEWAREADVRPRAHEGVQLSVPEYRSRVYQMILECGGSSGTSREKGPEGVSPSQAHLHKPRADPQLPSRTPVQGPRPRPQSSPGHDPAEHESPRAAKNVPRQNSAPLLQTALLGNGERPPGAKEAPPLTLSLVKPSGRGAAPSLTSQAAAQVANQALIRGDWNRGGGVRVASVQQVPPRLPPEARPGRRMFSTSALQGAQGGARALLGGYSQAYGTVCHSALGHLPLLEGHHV

[12] = target: Insulin receptor (Homo sapiens) (UniProt P06213); assay: Inhibition of His-IR at 10 uM assessed as residual activity by [33P]ATP radioactive filter binding assay relative to control
[13] = target: Aurora kinase A (Homo sapiens) (UniProt O14965); assay: Inhibition of Aurora A at 10 uM assessed as residual activity by [33P]ATP radioactive filter binding assay relative to control
Sequence of Aurora kinase A (Homo sapiens) (O14965 whole entry): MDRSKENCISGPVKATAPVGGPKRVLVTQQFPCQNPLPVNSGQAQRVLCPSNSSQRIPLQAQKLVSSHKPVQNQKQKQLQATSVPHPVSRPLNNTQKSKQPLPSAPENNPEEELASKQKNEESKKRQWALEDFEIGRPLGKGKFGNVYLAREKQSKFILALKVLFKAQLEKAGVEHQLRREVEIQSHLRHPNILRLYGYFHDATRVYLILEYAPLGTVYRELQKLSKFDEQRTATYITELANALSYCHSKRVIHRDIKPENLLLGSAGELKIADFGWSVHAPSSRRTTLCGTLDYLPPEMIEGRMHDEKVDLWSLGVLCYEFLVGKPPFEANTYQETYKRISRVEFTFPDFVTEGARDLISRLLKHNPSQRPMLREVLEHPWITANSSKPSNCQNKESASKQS

[14] = target: Serine/threonine-protein kinase STK11 (Homo sapiens) (UniProt Q15831); assay: Inhibition of LKB1 at 10 uM assessed as residual activity by [33P]ATP radioactive filter binding assay relative to control
[15] = target: Eukaryotic elongation factor 2 kinase (Homo sapiens) (UniProt O00418); assay: Inhibition of EF2K at 10 uM assessed as residual activity by [33P]ATP radioactive filter binding assay relative to control
[16] = target: Homeodomain-interacting protein kinase 2 (Homo sapiens) (UniProt Q9H2X6); assay: Inhibition of HIPK2 at 10 uM assessed as residual activity by [33P]ATP radioactive filter binding assay relative to control
[17] = target: Proto-oncogene tyrosine-protein kinase Src (Homo sapiens) (UniProt P12931); assay: Inhibition of Src at 10 uM assessed as residual activity by [33P]ATP radioactive filter binding assay relative to control
[18] = Inhibition of PHK at 10 uM assessed as residual activity by [33P]ATP radioactive filter binding assay relative to control
[19] = target: Serine/threonine-protein kinase Chk2 (Homo sapiens) (UniProt O96017); assay: Inhibition of CHK2 at 10 uM assessed as residual activity by [33P]ATP radioactive filter binding assay relative to control
[20] = target: Mitogen-activated protein kinase 14 (Homo sapiens) (UniProt Q16539); assay: Inhibition of p38alpha at 10 uM assessed as residual activity by [33P]ATP radioactive filter binding assay relative to control
[21] = target: Aurora kinase B (Homo sapiens) (UniProt Q96GD4); assay: Inhibition of Aurora B at 10 uM assessed as residual activity by [33P]ATP radioactive filter binding assay relative to control
[22] = target: Serine/threonine-protein kinase BRSK2 (Homo sapiens) (UniProt Q8IWQ3); assay: Inhibition of BRSK2 at 10 uM assessed as residual activity by [33P]ATP radioactive filter binding assay relative to control
[23] = target: Serine/threonine-protein kinase N2 (Homo sapiens) (UniProt Q16513); assay: Inhibition of PRK2 at 10 uM assessed as residual activity by [33P]ATP radioactive filter binding assay relative to control
[24] = target: NUAK family SNF1-like kinase 1 (Homo sapiens) (UniProt O60285); assay: Inhibition of NUAK1 at 10 uM assessed as residual activity by [33P]ATP radioactive filter binding assay relative to control
[25] = target: Dual specificity mitogen-activated protein kinase kinase 1 (Homo sapiens) (UniProt Q02750); assay: Inhibition of MKK1 at 10 uM assessed as residual activity by [33P]ATP radioactive filter binding assay relative to control
Sequence of Dual specificity mitogen-activated protein kinase kinase 1 (Homo sapiens) (Q02750 whole entry): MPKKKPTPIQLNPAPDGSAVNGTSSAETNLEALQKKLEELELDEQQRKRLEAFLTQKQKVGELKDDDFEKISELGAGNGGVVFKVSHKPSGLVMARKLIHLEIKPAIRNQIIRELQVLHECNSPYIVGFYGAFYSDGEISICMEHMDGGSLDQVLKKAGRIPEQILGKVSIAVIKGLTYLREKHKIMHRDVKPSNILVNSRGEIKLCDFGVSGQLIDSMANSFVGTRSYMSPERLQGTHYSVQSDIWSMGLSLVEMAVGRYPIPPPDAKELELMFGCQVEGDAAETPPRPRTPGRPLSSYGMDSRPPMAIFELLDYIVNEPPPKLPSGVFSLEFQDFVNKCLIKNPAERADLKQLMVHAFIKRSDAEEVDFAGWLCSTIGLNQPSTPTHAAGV

[26] = target: Serine/threonine-protein kinase pim-1 (Homo sapiens) (UniProt P11309); assay: Inhibition of PIM1 at 10 uM assessed as residual activity by [33P]ATP radioactive filter binding assay relative to control
[27] = target: Serine/threonine-protein kinase BRSK1 (Homo sapiens) (UniProt Q8TDC3); assay: Inhibition of BRSK1 at 10 uM assessed as residual activity by [33P]ATP radioactive filter binding assay relative to control
[28] = target: Myosin light chain kinase, smooth muscle (Homo sapiens) (UniProt Q15746); assay: Inhibition of SmMLCK at 10 uM assessed as residual activity by [33P]ATP radioactive filter binding assay relative to control
Sequence of Myosin light chain kinase, smooth muscle (Homo sapiens) (Q15746 whole entry): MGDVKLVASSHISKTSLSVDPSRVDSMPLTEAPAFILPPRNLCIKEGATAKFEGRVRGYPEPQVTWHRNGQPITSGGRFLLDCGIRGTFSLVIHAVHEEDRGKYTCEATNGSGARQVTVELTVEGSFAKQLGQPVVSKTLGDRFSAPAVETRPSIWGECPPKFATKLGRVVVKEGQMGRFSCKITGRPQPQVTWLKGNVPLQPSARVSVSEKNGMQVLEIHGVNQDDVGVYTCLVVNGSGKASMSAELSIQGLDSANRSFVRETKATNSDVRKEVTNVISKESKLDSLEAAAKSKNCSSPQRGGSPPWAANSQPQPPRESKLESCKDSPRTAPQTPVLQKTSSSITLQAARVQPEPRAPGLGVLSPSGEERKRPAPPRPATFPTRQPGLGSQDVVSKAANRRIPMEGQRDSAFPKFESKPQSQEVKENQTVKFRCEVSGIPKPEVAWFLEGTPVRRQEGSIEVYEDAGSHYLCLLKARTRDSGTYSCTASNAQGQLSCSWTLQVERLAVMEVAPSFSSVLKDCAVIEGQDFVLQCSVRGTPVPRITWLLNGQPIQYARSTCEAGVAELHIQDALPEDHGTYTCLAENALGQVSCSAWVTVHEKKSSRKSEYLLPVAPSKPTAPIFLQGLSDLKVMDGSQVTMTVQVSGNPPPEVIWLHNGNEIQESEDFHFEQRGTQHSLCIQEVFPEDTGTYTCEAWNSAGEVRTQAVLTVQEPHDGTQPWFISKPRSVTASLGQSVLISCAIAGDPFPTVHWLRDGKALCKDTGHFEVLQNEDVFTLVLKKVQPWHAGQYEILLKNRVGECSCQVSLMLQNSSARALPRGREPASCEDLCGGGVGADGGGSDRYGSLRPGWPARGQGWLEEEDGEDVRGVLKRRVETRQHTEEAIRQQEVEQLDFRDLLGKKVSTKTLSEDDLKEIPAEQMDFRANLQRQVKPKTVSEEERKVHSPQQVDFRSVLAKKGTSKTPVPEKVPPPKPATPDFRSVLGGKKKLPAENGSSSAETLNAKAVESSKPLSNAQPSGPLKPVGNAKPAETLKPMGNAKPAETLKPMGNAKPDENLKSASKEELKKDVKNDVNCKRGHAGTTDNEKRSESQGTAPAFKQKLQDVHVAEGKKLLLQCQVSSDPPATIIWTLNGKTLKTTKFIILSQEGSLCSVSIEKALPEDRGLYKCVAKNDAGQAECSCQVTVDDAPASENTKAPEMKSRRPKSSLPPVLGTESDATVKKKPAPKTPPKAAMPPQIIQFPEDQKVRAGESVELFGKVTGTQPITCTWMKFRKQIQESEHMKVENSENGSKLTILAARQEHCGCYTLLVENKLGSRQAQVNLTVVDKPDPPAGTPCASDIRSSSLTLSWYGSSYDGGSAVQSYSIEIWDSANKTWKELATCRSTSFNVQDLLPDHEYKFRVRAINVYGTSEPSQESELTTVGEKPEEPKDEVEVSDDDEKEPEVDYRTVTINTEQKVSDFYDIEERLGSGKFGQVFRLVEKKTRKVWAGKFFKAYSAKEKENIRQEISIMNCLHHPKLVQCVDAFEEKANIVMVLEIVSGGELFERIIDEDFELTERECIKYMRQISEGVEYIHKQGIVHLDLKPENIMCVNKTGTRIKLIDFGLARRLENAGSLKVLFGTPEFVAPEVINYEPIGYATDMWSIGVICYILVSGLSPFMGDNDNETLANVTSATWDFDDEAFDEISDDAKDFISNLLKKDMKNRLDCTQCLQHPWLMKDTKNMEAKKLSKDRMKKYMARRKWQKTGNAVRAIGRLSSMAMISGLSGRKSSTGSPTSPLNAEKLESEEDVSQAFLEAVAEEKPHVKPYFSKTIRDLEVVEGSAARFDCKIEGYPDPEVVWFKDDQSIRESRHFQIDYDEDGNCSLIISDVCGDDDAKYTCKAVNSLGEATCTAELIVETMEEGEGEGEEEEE

[29] = target: Mitogen-activated protein kinase 8 (Homo sapiens) (UniProt P45983); assay: Inhibition of JNK1 at 10 uM assessed as residual activity by [33P]ATP radioactive filter binding assay relative to control
cells = settings: Mus musculus, BaF3, 96 h
[30] = system: 3-phosphoinositide-dependent protein kinase 1; assay: Inhibition of PDK1 at 10 uM assessed as residual activity by [33P]ATP radioactive filter binding assay relative to control
[31] = system: Lymphokine-activated killer T-cell-originated protein kinase; assay: Inhibition of PBK1 at 10 uM assessed as residual activity by [33P]ATP radioactive filter binding assay relative to control

Sequence of Inhibitor of nuclear factor kappa-B kinase subunit beta (Homo sapiens) (O14920 whole entry): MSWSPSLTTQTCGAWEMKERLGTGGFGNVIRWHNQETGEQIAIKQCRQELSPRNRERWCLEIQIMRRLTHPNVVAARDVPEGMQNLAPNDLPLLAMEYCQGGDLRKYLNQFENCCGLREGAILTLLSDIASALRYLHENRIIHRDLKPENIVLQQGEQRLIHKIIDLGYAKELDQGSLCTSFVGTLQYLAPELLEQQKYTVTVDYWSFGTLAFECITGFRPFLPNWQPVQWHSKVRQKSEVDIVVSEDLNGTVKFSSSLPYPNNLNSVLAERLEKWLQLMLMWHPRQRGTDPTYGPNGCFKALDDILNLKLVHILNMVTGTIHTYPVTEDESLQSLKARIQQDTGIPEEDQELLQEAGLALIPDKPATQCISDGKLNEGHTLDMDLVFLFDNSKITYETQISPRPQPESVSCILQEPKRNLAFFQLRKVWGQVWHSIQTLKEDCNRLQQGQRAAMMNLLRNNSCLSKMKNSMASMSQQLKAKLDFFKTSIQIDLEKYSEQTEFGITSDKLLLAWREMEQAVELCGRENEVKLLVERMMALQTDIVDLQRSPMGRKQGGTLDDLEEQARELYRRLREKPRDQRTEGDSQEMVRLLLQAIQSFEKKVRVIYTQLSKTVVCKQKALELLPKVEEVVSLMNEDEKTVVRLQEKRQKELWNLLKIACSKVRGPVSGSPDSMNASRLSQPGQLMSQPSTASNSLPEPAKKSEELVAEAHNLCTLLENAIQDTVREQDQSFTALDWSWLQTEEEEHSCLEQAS

Row | Activity [1] [%] | Activity [2] [%] | Activity [3] [%] | Activity [4] [%] | Activity [5] [%] | Activity [7] [%] | Activity [8] [%] | Activity [9] [%] | Activity [10] [%] | Activity [12] [%] | Activity [13] [%] | Activity [14] [%] | Activity [15] [%] | Activity [16] [%] | Activity [17] [%] | Activity [18] [%] | Activity [19] [%] | Activity [20] [%] | Activity [21] [%] | Structure (SMILES) | Activity [11] [%] | other results
1 | 62 | 68 | 75 | 77 | 79 | 80 | 83 | 84 | 85 | 85 | 88 | 94 | 99 | 104 | 13 | 26 | 27 | 30 | 33 | CN(C)CCCC(=O)Nc1ccc2nccc(Nc3cccc(Br)c3)c2c1 | 85 | Activity [6]: 80%; Activity [22]: 36%; Activity [23]: 36%; Activity [24]: 37%; Activity [25]: 45%; Activity [26]: 46%; Activity [27]: 46%; Activity [28]: 48%; Activity [29]: 49%; GI50 (cells): > 500 nM; Activity [30]: 78%; Activity [31]: 84%
2 | 90 | 64 | 74 | 82 | 70 | 90 | 70 | 65 | 77 | 79 | 66 | 103 | 91 | 97 | 44 | 10 | 38 | 63 | 21 | CN(C)CCCC(=O)Nc1ccc2ncnc(Nc3cccc(Br)c3)c2c1 | 78 | Activity [22]: 29%; Activity [23]: 37%; Activity [24]: 39%; Activity [25]: 29%; Activity [26]: 12%; Activity [27]: 52%; Activity [28]: 18%; Activity [29]: 76%; GI50 (cells): > 5000 nM
